In US8334316B2, “Substituted organosulfur compounds and methods of using thereof” (ACEA Biosciences, Inc., priority 2004, dated 2012):
Blank lines part the entries; values can stand above or below the compound they belong to.

Legend:
HT1080 cells = experiment: Inhibition of cancer cell proliferation, IC50 of ACEA100129 (RT-CES or MTT, not specified), HT1080; assay type: cell-based; settings: Homo sapiens, HT-1080
Method: (§1) The anticancer potency of DBTS and its derivatives were tested in 8 different types of human cancer cell lines using the RT-CES system and MTT assay. The 8 cancer cell lines were HT1080 (the human fibrosarcoma cell line), H460 (human non small cell lung cancer cell line), OVCAR4 (the human ovarian cancer cell line), MCF7 (human breast cancer cell line) MDA-MB231 (M231, the human breast cancer cell line) A2780 (the human […] cancer cell line) Jurkat (the human T cell leukemia cell line). The test DBTS derivatives include ACEA100107, ACEA100108, ACEA100109, ACEA100111, ACEA100115, ACEA100116, ACEA100117, ACEA100118, ACEA100119, and ACEA100120.
(§2) For the assay performed on the RT-CES system, the cells were seeded into the 16× or 96× microtiter plate devices (electronic plates, i.e., the plates comprise microelectrode sensor arrays in the wells of the plate) at the seeding density ranging from 5000 cells/well to 15,000 cells/well. The cells were incubated at 5% CO2 and 37° C. for overnight till the cell indices reached the growth phase where the cell index was between 0.8 and 1.2. […] The time-dependent IC50 values for each derivative were calculated based the dose responses of cell index value at different time points after compound treatment. […]

HELA cells = experiment: Inhibition of cancer cell proliferation, IC50 of ACEA100129 (RT-CES or MTT, not specified), HELA; assay type: cell-based; settings: Homo sapiens
Method: as §1, §2

MCF7 cells = experiment: Inhibition of cancer cell proliferation, IC50 of ACEA100129 (RT-CES or MTT, not specified), MCF7; assay type: cell-based; settings: Homo sapiens
Method: as §1, §2

[1] = test system: A431 cells (human epidermoid cancer cells); experiment: RT-CES system cell proliferation, A431; assay type: cell-based; settings: FIG. 6B
Method: A431 cells (human epidermoid cancer cells) were seeded into wells of microtiter plate devices (electronic plates, i.e., the plates comprise microelectrode sensor arrays in the wells of the plate) with an initial seeding density of 10,000 cells per well and were pre-incubated in incubator under standard cell culture conditions for about 22.3 hrs. Various concentrations of DBTS and 5-fluorouracil solutions were added into wells following the incubation period. The cell status was monitored prior to and after the compound addition using RT-CES system.

mouse sarcoma S180 = experiment: In vivo antitumor efficacy, mouse sarcoma S180 model (subcutaneously transplanted), Example 1; settings: 30 mg/kg/d ip x7 qd
mouse Lewis lung cancer [2] = experiment: In vivo antitumor efficacy, mouse Lewis lung cancer model (subcutaneously transplanted), Example 1
Method: Test controls. For the negative control, two groups were set up: the solvent only control group and normal saline control group. […] In the normal saline group, each mouse was administered with 0.5 ml of normal saline, once per day and for 7 or 10 consecutive days. For the positive control group, the anticancer compound, cyclophosphamide (CTX) was administered intraperitoneally at 30 mg/kg, once per day and for 7 or 10 consecutive days.
In the mouse Lewis lung cancer model, 200 mg of DBTS was dissolved in 5 mL castor oil (in polyoxyethlated version). […] The intravenous injection speed was about 0.5 mL/0.5 min.
The dosages and administration of test compounds are within the knowledge of those commonly skilled in pharmacology. For example, the test compounds may be administered by intravenous injection with a test compound solution twice per day and for 7 consecutive days. Alternatively, the test compounds may be administered by intravenous injection with a test compound solution once per day and for 10 consecutive days.
0.2 mL of the tumor cell suspension (between 4 and 8 million tumor cells) was then transplanted back into an experimental mouse by subcutaneous injection. […] Each removed solid tumor was weighted, and the tumor inhibition rate in the DBTS-treated groups and in the CTX-treated group was calculated according to the formula: Tumor inhibition rate %=(average weight of tumor in the negative control group−average weight of tumor in the compound treated group)/average weight of tumor in the negative control group×100 (2)
For the mouse Lewis lung cancer model, the Lewis lung cancer cells were subcutaneously transplanted at approximately 5 million cells per mouse. After 24 hours of the transplantation, each mouse in the test group was administered intravenously with dibenzyl trisulfide at 50, 25, or 12.5 mg/kg per day and for 10 consecutive days. For the positive control group, each mouse was administered with CTX at […] intraperitoneally per day and for 10 consecutive days. For the negative control group, each mouse was administered intravenously either with normal saline, or with the solvent for dibenzyl trisulfide at the same concentration as that in the test group per day and for consecutive 10 days. For each group, 10 mice were used.

mouse Lewis lung cancer [3] = experiment: In vivo antitumor efficacy, mouse Lewis lung cancer model, Example 2 (DBTS, CTX, Taxol reference); settings: 30 mg/kg/d ip x7 qd
[4] = test system: P388 lymphocytic leukemia; experiment: Murine P388 lymphocytic leukemia model (intraperitoneal transplantation), life span; assay type: in vivo, mouse; settings: 2 mg/kg/d iv x7 qd
Method: Both male and female mice were used.
Preparation and Administration of Test Compounds.
To prepare cancer cells for the P388 murine lymphocytic leukemia model, ascites of a P388 leukemia-bearing mouse were removed under sterile condition. The ascites were diluted in normal saline (1:6 for ascites to normal saline) to prepare cell suspension. 0.2 mL of the cell suspension was then injected intraperitoneally. […] The life span of carrier mice was determined within 30 days. The life span ratio comparing to the negative control group of the carrier mice in each compound treatment group was calculated according to the formula: Life span ratio %=average life span for the compound treatment group/average life span for the negative control group×100% (4)

[5] = test system: microtubules in COS cells; experiment: Microtubule network in cultured COS cells (anti-tubulin immunofluorescence, confocal microscopy); assay type: cell-based
Method: Cell Culture and Immunocytochemistry. COS cells were grown in DMEM media supplemented with non-essential amino acids, 10% FBS, antibiotic-antimycotic (Gibco BRL) at 37° C. and 5.5% CO2. […] Cells were then rinsed once with warm PBS, fixed with cold methanol, rinsed again in PBS and blocked overnight at 4° C. in PBT (PBS, 1% BSA, 0.5% Triton X-100). All subsequent stains and washes were done in PBT at room temperature unless stated otherwise. Cells were stained with the anti-tubulin mouse antibody DM-1 at 1:1000 for 1 hour, washed four times for 15 minutes each and then treated with Cy-3 conjugated goat anti mouse antibody at 1:100 for 1 hour in the dark. Next, samples were washed four times for 15 minutes each in PBT in the dark followed by a final 15 minute wash in PBS in the dark. Samples were then viewed by laser scanning confocal microscopy.

[6] = test system: A549 human lung cancer cells; experiment: Apoptosis: Annexin V-Cy3 / 6-CFDA staining of A549 cells; assay type: cell-based; settings: 10 nM, 24 hrs
Method: The cells were incubated with the drugs for 24 hours and then washed 2× with PBS and 3× with binding buffer (10 mM HEPES, pH 7.5, 140 mM NaCl, 2.5 mM CaCl2). […] The cells were gently washed 3× in 1× binding buffer, mounted, viewed under immunofluorescent microscope and imaged using an attached CCD camera. Note that live cells show staining only with 6-CFDA (green), while necrotic cells will stain only with Annexin V-Cy3 (red). Cells starting the apoptotic process will stain both with AnnexinV-Cy3 and 6-CFDA.

IC50 (HT1080 cells): 820 nM
IC50 (HELA cells): 420 nM
IC50 (MCF7 cells): 2300 nM
SMILES: Cc1ccc(CSSSCc2ccc(C)cc2)cc1 [ACEA100129, Di(p-methylbenzyl)trisulfide]

SMILES: O=c1[nH]cc(F)c(=O)[nH]1 [5-fluorouracil]
Concentration showing inhibitory ability against proliferation [1]: ≥ 12.5 µM

SMILES: O=P1(N(CCCl)CCCl)NCCCO1 (centres unmarked) [CTX, cyclophosphamide, reference compound]
Animal weight (g) beginning (mouse sarcoma S180): 19.6 g
Animal weight (g) end (mouse sarcoma S180): 20.3 g
Inhibition rate (%) (mouse sarcoma S180; vs 10% solvent control): 88.83%
Inhibition rate (%) (mouse sarcoma S180; vs normal saline control): 91.76%
Animal weight (g) beginning (mouse Lewis lung cancer [2]; 30 mg/kg/d ip): 19.1 g
Animal weight (g) end (mouse Lewis lung cancer [2]; 30 mg/kg/d ip): 20.2 g
Inhibition rate (%) (mouse Lewis lung cancer [2]; 30 mg/kg/d ip x7 qd, vs 5% solvent control): 85.83%
Inhibition rate (%) (mouse Lewis lung cancer [2]; 30 mg/kg/d ip x10 qd, vs normal saline control): 87.62%
Animal weight (g) beginning (mouse Lewis lung cancer [3]): 21.1 g
Animal weight (g) end (mouse Lewis lung cancer [3]): 22.3 g
Tumor weight (mouse Lewis lung cancer [3]): 0.258 ± 0.09 g
tumor inhibition rate % (mouse Lewis lung cancer [3]; vs normal saline control): 90.75%

SMILES: CO[C@@]12[C@H](COC(N)=O)C3=C(C(=O)C(C)=C(N)C3=O)N1C[C@@H]1N[C@@H]12 [MMC, mitomycin C, reference compound]
Beginning animal weight [4]: 20.6 g
animal No. beginning/end (survivors) [4]: 10/1
Average life span X ± SD ([4]; observed within 30 days): 18.1 ± 0.15
Life span ratio % ([4]; vs solvent control): 186.59%

SMILES: CC[C@]1(O)C[C@@H]2CN(CCc3c([nH]c4ccccc34)[C@@](C(=O)OC)(c3cc4c(cc3OC)N(C)[C@H]3[C@@](O)(C(=O)OC)[C@H](OC(C)=O)[C@]5(CC)C=CCN6CC[C@]43[C@@H]65)C2)C1 [vinblastine, reference compound]
Microtubule network appearance ([5]; 4 hours exposure): the microtubule network begins to fall apart and the microtubules become much shorter
Microtubule network appearance ([5]; 24 hours exposure, increasing dosage): major cell abnormalities are widespread in the microtubule network
Annexin V staining (apoptosis) [6]: strong staining of Annexin V
